How the values were obtained:
[1] = cited from earlier work
SD rats of both sexes = assay: Effect of Modafinil on sexual ability in rats; type: in vivo; conditions: 200 mg/kg/day for 15 days
Protocol: EXPERIMENTAL ANIMALS: SD rats of both sexes were used and feeding methods of the drug were the same as in the Example 1.
EXPERIMENTAL PROTOCOL: 15 males and 15 females for control fed with 3% starch paste for 15 days while 15 males and 15 females were is treated with 200 mg/kg/day of Modafinil(prepared according to Example 1 in the U.S. Pat. No. 4,177,290) for 15 days. On day 16 evening, each special cage was distributed by chance with 1 male and 1 female rat couple. For the first 2 hours of coinhabitation, the numbers of sexual intercourse movement of male along with acceptance of female were counted.

Young female SD rats = assay: Effect of Modafinil on uterus weight in female rats; type: in vivo; conditions: 200 mg/kg/day for 15 days
Protocol: EXPERIMENTAL ANIMAL: Young female SD rats of 25 days old were used. Food and drug administration was the sane as used in the Example 1.
EXPERIMENTAL PROTOCOL: 15 female rats for control were fed 3% starch paste 2 ml/day for 15 successive days. 15 female rats treated with Modafinil(prepared according to Example 1 in the U.S. Pat. No. 4,177,290) mixed with 3% starch paste for 200 mg/kg/day in 2 ml of starch paste a day. Animals were sacrificed on day 16 and the uterei were taken out. Every fresh uterus was weighed.

[2] = tested on: spermatozoa counts in rats; assay: Effect of Modafinil on spermatogenesis in rats; type: in vivo, SD male rats; conditions: for mean number of spermatozoa per gram weight of sperm ± S.D.: SD male rats, sperm from epididymis tail
Protocol: EXPERIMENTAL ANIMALS: SD male rats, 2 months old, weighing 210 to 260 g, were used for this experiment. All the animals were fed in the laboratory for a week before starting the experiment for accommodative purpose. The animals were distributed randomly into 5 experimental groups, 10 in each group. The room temperature was kept at 20 to 25° C. 4 groups of rats were administrated with Modafinil and 1 group for control.
METHODS AND PROTOCOLS: In treated groups, various doses of Modafinil were given by gavage as 200, 400, 600 and 800 mg/kg/day in rats. Modafinil(prepared according to Example 1 in the U.S. Pat. No. 4,177,290) was mixed with 3% starch paste, 2 ml for each rat per day, gavage feeding for successive 30 days. The controlled animals received the 3% starch paste without drug, with same amount for 30 successive days. The morphology, motility and number of the spermatozoa of the animals in each group were observed and counted. On days 31, all animals were killed. Spermatozoa in the sperm taken from epididymis tail were counted; the testes and prostates were taken out. Histological sections were made and examined under microscope.

NC(=O)C[S+]([O-])C(c1ccccc1)c1ccccc1 (stereo not drawn) [Modafinil, 2-[(Diphenylmethyl)sulfinyl]-N-Acetamide]
solubility in acetone ([1]; acetone): sparingly or slightly soluble | solubility in cyclohexane ([1]; cyclohexane): insoluble | solubility in methanol ([1]; methanol): sparingly or slightly soluble | solubility in water ([1]; water): insoluble | number of sexual intercourse (Mean±S.D.) (SD rats of both sexes; males and females treated, first 2 hours of coinhabitation on day 16): 5.0±1.2 times/2 hours/couple | mean number of sexual intercourse relative to control (SD rats of both sexes; rats): 161 % of the control | mean uterus weight relative to controls (Young female SD rats): 158 % of that in Controls | mean uterus weight (Mean+S.D.) (Young female SD rats; fresh uterus on day 16): 0.418 ± 0.082 g | mean number of spermatozoa per gram weight of sperm ± S.D. ([2]; 200 mg/kg/day by gavage for 30 days): 819.8 ± 295.6 per gram weight of sperm | mean number of spermatozoa per gram weight of sperm ± S.D. ([2]; 400 mg/kg/day by gavage for 30 days): 1753.8 ± 540.6 per gram weight of sperm | mean number of spermatozoa per gram weight of sperm ± S.D. ([2]; 600 mg/kg/day by gavage for 30 days): 1706.0 ± 379.9 per gram weight of sperm | mean number of spermatozoa per gram weight of sperm ± S.D. ([2]; 800 mg/kg/day by gavage for 30 days): 1656.0 ± 165.8 per gram weight of sperm | histological examination: stages of normal spermatogenesis in the seminiferous tubules ([2]; Modafinil treated groups versus controls, testes sections): more distinct and regular than those in the controls | histological examination: cell degeneration during the course of spermatogenesis ([2]; Modafinil treated groups, testes sections): No cell degeneration was found | number of spermatozoa and motility ([2]; all Modafinil treated groups (200-800 mg/kg/day, 30 days), rats): remarkably increased with active motility

— US6465519B2, “Uses of modafinil and its D/L enantiomers” (priority 1999, dated 2002)
